Laboratory results from patent publication US6413937B1, “Combinations for use in increasing the potency of a substrate for multidrug resistance related protein” (Dublin City University and Enterprise Ireland, priority 1996, dated 2002).

Tested on: DLKP cell line
Assay: miniaturised in vitro colorimetric cell survival assay (acid phosphatase end-point), DLKP
Assay type: cell-based, human
Description: All the results presented in this Example for the DLKP, A549 and OAW42-SR cell lines were derived using the same miniaturised in vitro calorimetric assay system. On Day 1 of the assay 1000 cells/well/100 μl were plated into 96-well plates. Cells were allowed to attach overnight and cell viability was visually assessed. […] NSAID plus chemotherapeutic drug) to be analysed were added onto the cells. The individual drugs were added separately in 50 μl quantities (4× stocks, to take into account the dilution effect of having 200 μl final volume in each well). The drugs were left on the cells for five further days (Day 7) and cell number was determined using the acid phosphatase end-point assay which uses p-nitrophenol phosphate as substrate (Martin, A. and Clynes, M. (1991) In Vitro Dev. Biol., 27A, 183-184). On Day 7 the culture medium was removed from the cells and they were washed once with phosphate buffered saline (PBS). […] After the incubation period 50 μl of 1N NaOH was added to each well to develop the colour. The plates were then read at 405 nm (reference 620 nm) on an ELISA plate-reader. […] All results are the cell survival means ±S.D. from a minimum of three experiments.

CC1=C(CC(=O)O)c2cc(F)ccc2/C1=C\c1ccc([S+](C)[O-])cc1 (stereo not drawn) [Sulindac, sulindac]
% cell survival (ii) Sulindac 1.5 μg/ml, alone or + Vincristine 1.0 ng/ml): 111.6 ± 9.7%
% cell survival (ii) Sulindac 3 μg/ml, alone or + Vincristine 1.0 ng/ml): 108.45 ± 10.6%
% cell survival (ii) Sulindac 6 μg/ml, alone or + Vincristine 1.0 ng/ml): 114.1 ± 3.9%
% cell survival (iii) Sulindac 1.5 μg/ml, alone or + VP-16 100 ng/ml): 95.07 ± 1.6%
% cell survival (iii) Sulindac 3 μg/ml, alone or + VP-16 100 ng/ml): 93.68 ± 2.0%
% cell survival (iii) Sulindac 6 μg/ml, alone or + VP-16 100 ng/ml): 90.75 ± 3.3%
% cell survival (iv) Sulindac 1.5 μg/ml, alone or + 5-FU 0.5 μg/ml): 99.70 ± 7.7%
% cell survival (iv) Sulindac 3 μg/ml, alone or + 5-FU 0.5 μg/ml): 98.79 ± 8.8%
% cell survival (iv) Sulindac 6 μg/ml, alone or + 5-FU 0.5 μg/ml): 93.61 ± 5.9%
% cell survival (vii) Sulindac 1.5 μg/ml, alone or + PAT 1.5 μg/ml): 96.51 ± 5.3%
% cell survival (vii) Sulindac 3.0 μg/ml, alone or + PAT 1.5 μg/ml): 99.99 ± 2.9%
% cell survival (vii) Sulindac 6.0 μg/ml, alone or + PAT 1.5 μg/ml): 94.23 ± 1.2%
